Columns and labels:
[1] = test system: cardiomyocytes; assay: TUNEL assay of apoptosis in cardiomyocyte cultures; type: cell-based, rat; conditions: 500 μM, 24 hr
Method: rPMT increases H2O2-induced apoptosis in cardiomyocyte cultures. Cells were treated without or with rPMT (400 ng/ml) for 24 hr followed by H202 (500 μM) for 24 hr. The percentage of cells undergoing apoptosis was measured by TUNEL assay as described in Methods below. Data are from a single experiment and are representative of results obtained on 3 separate culture preparations.
TUNEL staining was performed for detection of apoptotic cells according to manufacturer's instructions (Boehringer). Approximately 500 cardiomyocytes were imaged by fluorescence microscopy and the number of cells that scored TUNEL-positive is presented as a percentage of total.

[2] = test system: cardiomyocytes; assay: Tolerance of cardiomyocytes to prolonged incubation with inhibitor; conditions: prolonged (24 hr) incubations
[3] = test system: AKT; assay: Phospho-AKT and total AKT Western blot in cardiomyocytes; type: cell-based, rat; conditions: 5 min; PMA 100 nM, NE 10 μM
Method: rPMT decreases basal AKT phosphorylation and prevents its phosphorylation by EGF. Neonatal rat cardiomyocytes were treated with rPMT (400 ng/ml) for 24 hr (Panel A), 48 hr (Panel B) or with EGF (50 ng/ml) for 5 min. Cell lysates were subjected to SDS-PAGE followed by Western blotting with antibodies that recognize the phosphorylated form or total AKT. Data are from representative gels, with similar results obtained in 3 separate experiments.
Panel A: Cells were treated with norepinephrine (NE, 10 μM) or PMA (100 nM) for 5 min without or with GF109203 (5 μM).
Panel B: Cells were treated with rPMT (400 ng/ml), NE (10 μM) or PMA (100 nM) for 24 hr without or with Go6983 (5 μM). […] Cell lysates were subjected to SDS-PAGE followed by Western blotting using a specific anti-phospho-AKT antibody. Data are from representative gels, with similar results obtained in 3 separate culture preparations.
(§1) Specific immunoreactivity for individual PKC isoforms was quantified according to methods described previously. For assays of MAPKs and AKT, cells were exposed to test agents as indicated in individual experimental protocols, washed three times with ice-cold calcium/magnesium-free Dulbecco's PBS (pH 7.1), scraped into ice-cold extraction buffer [20 mM β-glycerophosphate pH 7.5, 20 mM sodium fluoride, 2 mM EDTA, 0.2 mM sodium vanadate, 10 μg/ml aprotinin, 25 μg/ml leupeptin, 50 μg/ml PMSF, and 0.3% (v/v) β-mercaptoethanol], lysed by sonication, and centrifuged at 10,000 g for 10 min at 4° C. The supernatant was diluted in SDS-PAGE sample buffer, boiled for 5 min, and stored at −70° C. Western blot analysis was performed with antibodies that are selective for the phosphorylated (activated) forms of ERK1/2, p38-MAPK, JNK, AKT, and pan-PKC according to manufacturer's instructions. For each panel in each Figure, the results are from a single gel exposed for a uniform duration. Bands were detected by enhanced chemiluminescence and blots were quantified by laser scanning densitometry.

[4] = test system: ANF mRNA; assay: Northern blot analysis of ANF mRNA in cardiomyocytes; type: cell-based, rat; conditions: rPMT 400 ng/ml or NE 10 μM, 48 hr, serum-free
Method: (§2) rPMT mimics the effect of norepinephrine to promote cardiomyocyte hypertrophy. Cardiomyocytes were cultured in serum-free medium without or with rPMT (400 ng/ml) or norepinephrine (NE, 10 μM) for 48 hr. Cardiomyocytes were fixed, permeabilized, and stained with monoclonal anti-α-actinin sarcomeric (Panel A, magnification×100) or subjected to Northern blot analysis for measurements of steady-state ANF mRNA expression (Panel B). Effects of rPMT (black bars) and NE (gray bars) vs. vehicle (white bars) on sarcomeric organization (Panel C), cell size (Panel D), and protein synthesis (Panel E) are illustrated (n=3 for each).
Total RNA from neonatal rat cardiomyocytes were isolated by using a Qiagen kit according to manufacturer's instructions. A rat ANF cDNA probe (˜600 bp) was labeled with [^32P]dCTP. 10 μ/g of total RNA was separated on a 1% agarose gel and transferred to a nylon membrane (Amersham). Prehybridization and hybridization were performed according to standard methods. Normalization of signals was performed with a glyceraldehyde-3-phosphate dehydrogenase probe. Signals were detected by Phosphorimage analysis.

[5] = test system: PKCα and PKCλ; assay: Immunoblot of PKCα/PKCλ abundance and distribution in cardiomyocytes; type: cell-based, rat; conditions: 24 hr stimulation
Method: (§3) rPMT selectively activates nPKC isoforms. Cardiomyocyte cultures were incubated in culture medium without or with NE (10 μM), rPMT (400 ng/ml) or PMA (100 nM) for 24 hr (Panels A and C) or 5 min (Panel B). Soluble extracts were prepared and separated by SDS-PAGE followed by immunodetection of total PKC isoform abundance with antibodies that are specific for the individual PKC isoforms (Panel A), or phosphorylated forms of PKC (largely PKCε) with a pan-phospho-PKC antibody (Panels B and C), as described in Methods below. GF109203 was included at 5 μM 30 min prior to stimulation as indicated.
(§4) Cells were maintained in culture in the presence of 10% FCS for 96 hr and then switched to serum-free medium for 24 hr prior to the addition of agonists as indicated. For PKC, extracts were prepared and subjected to SDS-PAGE to resolve individual isoforms according to methods described previously (14).
(§5) Specific immunoreactivity for individual PKC isoforms was quantified according to methods described previously. […] Bands were detected by enhanced chemiluminescence and blots were quantified by laser scanning densitometry.

[6] = test system: PKCδ and PKCε; assay: Immunoblot of nPKC isoform abundance in cardiomyocytes; type: cell-based, rat; conditions: 24 hr stimulation
Method: as §3, §4, §5

[7] = test system: cardiomyocytes; assay: Cardiomyocyte growth: sarcomeric organization and cell size; type: cell-based, rat; conditions: rPMT 400 ng/ml or NE 10 μM, 48 hr, serum-free
Method: as §2
Cardiomyocyte growth was assessed by measuring cell surface area by digitized image analysis. For each experimental point, 7-10 frames/dish were recorded at 40× magnification with a video camera attached to a Nikon microscope which was calibrated with a micrometer.
Cardiomyocytes were grown on slides precoated with fibronectin. After treatment, cells were fixed with cold methanol and permeabilized with 0.1% Triton X-100 and 0.2% BSA. Cells were incubated with α-actinin monoclonal antibody overnight at 4° C. followed by anti-mouse IgG-Cy3-labeled antibody for 30 min at room temperature. Fluorescence microscopy images were obtained at 100× magnification.

[8] = target: T1, PKC-ε (Rattus norvegicus, UniProt P09216); assay: Western blot with anti-phospho-PKC antibody in cardiomyocytes; type: cell-based; conditions: NE 10 μM or PMA 100 nM for 5 min
T1 construct: PKCε is detected as a single band in quiescent cardiomyocytes; endogenous in cells; host or cells: cultured neonatal rat ventricular cardiomyocytes
T1 sequence (P09216 1-737): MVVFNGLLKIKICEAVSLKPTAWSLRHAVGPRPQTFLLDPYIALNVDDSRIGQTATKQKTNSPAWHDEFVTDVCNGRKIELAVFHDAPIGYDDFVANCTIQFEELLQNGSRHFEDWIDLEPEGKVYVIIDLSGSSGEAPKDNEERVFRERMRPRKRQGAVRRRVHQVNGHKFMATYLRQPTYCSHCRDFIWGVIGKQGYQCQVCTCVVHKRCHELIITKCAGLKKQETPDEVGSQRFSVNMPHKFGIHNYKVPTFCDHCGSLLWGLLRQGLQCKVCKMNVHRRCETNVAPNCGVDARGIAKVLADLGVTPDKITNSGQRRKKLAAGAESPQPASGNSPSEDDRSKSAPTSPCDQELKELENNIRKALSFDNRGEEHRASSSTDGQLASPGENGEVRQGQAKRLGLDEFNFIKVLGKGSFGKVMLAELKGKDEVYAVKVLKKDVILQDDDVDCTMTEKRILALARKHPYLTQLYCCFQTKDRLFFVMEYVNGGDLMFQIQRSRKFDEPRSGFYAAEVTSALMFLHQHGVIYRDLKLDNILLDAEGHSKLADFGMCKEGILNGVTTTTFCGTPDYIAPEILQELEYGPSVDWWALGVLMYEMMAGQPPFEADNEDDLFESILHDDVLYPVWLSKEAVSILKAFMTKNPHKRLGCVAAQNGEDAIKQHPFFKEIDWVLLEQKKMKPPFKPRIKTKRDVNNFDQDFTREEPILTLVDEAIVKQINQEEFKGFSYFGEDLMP
Method: as §3, §1

[9] = test system: cardiomyocytes; assay: Protein synthesis ([3H]phenylalanine incorporation) in cardiomyocytes; type: cell-based, rat; conditions: rPMT 400 ng/ml or NE 10 μM, 48 hr, serum-free
Method: as §2
As a second index of cardiomyocyte growth, relative rates of protein synthesis were measured as radiolabeled phenylalanine incorporation into cell protein. Cells were stimulated in serum-free medium with agonists (or vehicle as control) for 48 hr at 37° C. The medium was replaced with serum-free medium containing [^3H]phenylalanine (0.1 μCi/ml) and non-radioactive phenylalanine (0.3 mM, to minimize variations in the specific activity of the precursor pool responsible for protein synthesis) during the final 24 hr of stimulation. Cells were rinsed with PBS and incubated in 10% trichloroacetic acid for 30 min on ice. […] Aliquots of the SDS-soluble protein were counted in 5 ml of scintillant.

Structure (SMILES): OO [H202, reference compound]
- apoptosis (TUNEL) [1]: induces apoptosis

Structure (SMILES): CC(=O)c1c(O)c(C)c(O)c(Cc2c(O)c3c(c(C(=O)/C=C/c4ccccc4)c2O)OC(C)(C)C=C3)c1O [rottlerin]
- tolerance of cardiomyocytes to the inhibitor [2]: do not tolerate

Structure (SMILES): NC[C@H](O)c1ccc(O)c(O)c1 [NE, norepinephrine, reference compound]
- basal AKT phosphorylation after acute treatment [3]: not
- ANF mRNA expression [4]: induce ANF mRNA expression
- abundance and subcellular distribution of PKCα and PKCλ [5]: is not altered
- abundance of PKCδ and PKCε in the soluble fraction [6]: significantly reduce
- cell size (cellular enlargement) [7]: induce marked cellular enlargement
- myofibrillar (sarcomeric) organization [7]: promote myofibrillar organization
- PKC-ε phosphorylation/activation (phospho-PKC band pattern) [8]: slower mobility, more-highly phosphorylated species
- [3H]phenylalanine incorporation (protein synthesis) [9]: enhance [^3H]phenylalanine incorporation

Source: patent US20030134774A1, “Methods for inhibiting cardiac disorders” (priority 2001, published 2003)
